Legend:
[1] = Inhibitory potency against glucosidase was determined.; parameters: species or system Saccharomyces cerevisiae
[2] = molecular target: Lysosomal alpha-glucosidase (Homo sapiens, UniProt P10253); test: Inhibitory potency for alpha-glucosidase was determined at concentration up to 3.0 mM; No inhibition; parameters: species or system Saccharomyces cerevisiae

Ki [1] | Ki [2] | Structure (SMILES)
23 µM | – | NCC(=O)N1C[C@H](O)[C@@H](O)[C@H](O)[C@H]1CO
– | Not Active | OC[C@@H]1[C@@H](O)[C@H](O)[C@@H](O)CN1Cc1ccccc1

Source: ChEMBL document CHEMBL1132039, “Isotope edited NMR studies of glycosidases: design and synthesis of a novel glycosidase inhibitor” (Bioorg Med Chem Lett, 1999)
